Measured values taken from PMC3492761 (Journal of medicinal chemistry, 2012).

Tests used:
[1] = system: A/Brisbane/10/2007 (H3N2); conditions: read-out: EC50, cytopathic effect inhibition
[2] = system: A/WSN/33 (H1N1) influenza virus; conditions: mouse, in vivo, po
[3] = male (rat, dog), human, microsomes, 1 h

**Q.** For `CCC(CC)O[C@@H]1C=C(P(=O)(O)O)C[C@H](N)[C@H]1NC(C)=O` [3a, tamiphosphor], which EC50 [1] is on record?
**A.** > 10 µM

**Q.** For `CCOP(=O)(OCC)C1=C[C@@H](OC(CC)CC)[C@H](NC(C)=O)[C@@H](N)C1` [3b, tamiphosphor diethyl ester], which “protection of infected mice” value [2] is on record?
**A.** No significant protection

**Q.** Which EC50 [1] does the source give for `CCOP(=O)(O)C1=C[C@@H](OC(CC)CC)[C@H](NC(C)=O)[C@@H](N)C1` [3c, tamiphosphor monoethyl ester] here?
**A.** > 10 µM

**Q.** Which EC50 [1] does the source give for `CCC(CC)O[C@@H]1C=C(P(=O)(O)O)C[C@H](NC(=N)N)[C@H]1NC(C)=O` [4a, guanidino-tamiphosphor] here?
**A.** > 10 µM

**Q.** For `CCOP(=O)(O)C1=C[C@@H](OC(CC)CC)[C@H](NC(C)=O)[C@@H](NC(=N)N)C1` [4c, guanidino-tamiphosphor monoethyl ester], which EC50 [1] is on record?
**A.** > 10 µM

**Q.** Which metabolized [3] does the source give for `Cc1ncc2n1-c1ccc(Cl)cc1C(c1ccccc1F)=NC2` [midazolam] here?
**A.** 65–100%

**Q.** For `C[C@]12CC[C@H]3[C@@H](CCC4=CC(=O)CC[C@@]43C)[C@@H]1CC[C@@H]2O` [testosterone], which metabolized [3] is on record?
**A.** 65–100%
